Measured values from US20250296959A1, “B7-H3 TARGETING PEPTIDES AND CONSTRUCTS THEREOF” (Mariana Oncology Inc., priority 2024, published 2025).
Starred links: 1 amine or outer side, 2 acyl side, 3 side chain; linkers in the order of their positions; H or OH if unused. Positions of bridges follow the written chain, without caps; N, C: chain ends. Non-standard residues stand in square brackets, D forms with d. Residues, ends and D or L forms follow the SMILES beside them. *: point of attachment. Ala(piperidin-4-yl) = O=C([C@H](CC1CCN([*:3])CC1)N[*:1])[*:2]; DOTA = O=C(O)CN1CCN(CC(=O)O)CCN(CC(=O)*)CCN(CC(=O)O)CC1; Trp(1-CH2COOH) = N[C@@H](Cc1cn(CC(=O)O)c2ccccc12)C(=O)O; Phe(4-COOH) = N[C@@H](Cc1ccc(C(=O)O)cc1)C(=O)O; Trp(5-F) = N[C@@H](Cc1c[nH]c2ccc(F)cc12)C(=O)O; Trp(7-aza) = N[C@@H](Cc1c[nH]c2ncccc12)C(=O)O; X1 = C[C@@H](c1ccccc1)[C@H](N[*:1])C(=O)[*:2]; PEG8 = NCCOCCOCCOCCOCCOCCOCCOCCOCCC(=O)O; γGlu = O=C(O)[C@H](CCC(=O)[*:2])N[*:1]; 1Nal = N[C@@H](Cc1cccc2ccccc12)C(=O)O; Ala(4-THP) = N[C@@H](CC1CCOCC1)C(=O)O; hTyr = N[C@@H](CCc1ccc(O)cc1)C(=O)O; Val(3-OH) = CC(C)(O)[C@H](N)C(=O)O; Aad = N[C@@H](CCCC(=O)O)C(=O)O; pGlu = O=C1CC[C@@H](C(=O)O)N1; Pen = CC(C)(S)[C@H](N)C(=O)O; Tle = CC(C)(C)[C@H](N)C(=O)O; hLeu = CC(C)CC[C@H](N)C(=O)O; Nle = CCCC[C@H](N)C(=O)O; Sar = CNCC(=O)O

Target: T1, human 4lg B7-H3 (Homo sapiens, UniProt Q5ZPR3)
T1 sequence (Q5ZPR3 29-534): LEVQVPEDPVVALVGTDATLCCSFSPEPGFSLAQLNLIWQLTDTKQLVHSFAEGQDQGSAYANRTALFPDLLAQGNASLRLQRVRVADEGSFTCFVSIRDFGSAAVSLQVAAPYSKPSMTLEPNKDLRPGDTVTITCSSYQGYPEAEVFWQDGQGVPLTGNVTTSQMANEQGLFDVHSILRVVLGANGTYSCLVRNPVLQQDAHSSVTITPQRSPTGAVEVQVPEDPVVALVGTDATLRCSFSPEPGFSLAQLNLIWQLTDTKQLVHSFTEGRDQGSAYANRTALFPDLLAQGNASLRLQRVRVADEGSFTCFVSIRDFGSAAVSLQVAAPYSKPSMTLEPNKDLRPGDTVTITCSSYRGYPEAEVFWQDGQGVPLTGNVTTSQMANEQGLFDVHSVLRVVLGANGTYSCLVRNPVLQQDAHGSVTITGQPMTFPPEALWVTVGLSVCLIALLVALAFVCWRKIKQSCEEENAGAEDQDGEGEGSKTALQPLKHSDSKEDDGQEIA
Assay: Affinity determination by surface plasmon resonance (SPR) to 4Ig B7-H3
Conditions: SPR KD—25° C., 4Ig B7-H3; 25° C. flow cell temperature

Kd | Compound
10 to 100 nM | CCCC[C@H](NC(C)=O)C(=O)N[C@@H](Cc1ccc(O)cc1)C(=O)N[C@H]1CSSC[C@@H](C(=O)N[C@@H](Cc2c[nH]c3ccccc23)C(=O)N[C@@H](Cc2ccccc2)C(=O)N[C@H](C(=O)N[C@H](CCCCNC(=O)CN2CCN(CC(=O)O)CCN(CC(=O)O)CCN(CC(=O)O)CC2)C(N)=O)[C@@H](C)O)NC(=O)[C@H](Cc2ccc(O)cc2)NC(=O)[C@H](C(C)C)NC(=O)[C@H](CC(N)=O)NC(=O)[C@H](Cc2ccc(O)cc2)NC(=O)[C@H](CCCCN)NC(=O)CNC(=O)[C@H](C(C)C)NC1=O [compound 80, Ac-Nle-Y-C-V-G-K-Y-N-V-Y-C-W-F-Thr-dLys(DOTA)-CONH2] (Ac-[Nle]YCVGKYNVYCWFT[dK](DOTA)-NH2; disulfide 3-11)
10 to 100 nM | CC(=O)N[C@@H](CCC(C)C)C(=O)N[C@@H](Cc1ccc(O)cc1)C(=O)N[C@@H]1C(=O)N[C@@H](C(C)C)C(=O)NCC(=O)N[C@@H](CCCCN)C(=O)N[C@@H](Cc2ccc(O)cc2)C(=O)N[C@@H](CC(=O)O)C(=O)N[C@@H](C(C)C)C(=O)N[C@@H](Cc2ccc(O)cc2)C(=O)N[C@H](C(=O)N[C@@H](Cc2c[nH]c3ccccc23)C(=O)N[C@@H](Cc2ccccc2)C(=O)N[C@H](C(=O)N[C@H](CCCCNC(=O)CN2CCN(CC(=O)O)CCN(CC(=O)O)CCN(CC(=O)O)CC2)C(N)=O)[C@@H](C)O)CSSC1(C)C [compound 117, Ac-hLeu-Y-Pen-V-G-K-Y-D-V-Y-C-W-F-Thr-dLys(DOTA)-CONH2] (Ac-[hLeu]Y[Pen]VGKYDVYCWFT[dK](DOTA)-NH2; disulfide 3-11)
10 to 100 nM | CC(C)CC[C@H](NC(=O)CC[C@H](NC(=O)CN1CCN(CC(=O)O)CCN(CC(=O)O)CCN(CC(=O)O)CC1)C(=O)O)C(=O)N[C@@H](Cc1c[nH]c2ncccc12)C(=O)N[C@H]1CSSC[C@@H](C(=O)N[C@@H](Cc2cccc3ccccc23)C(=O)N[C@@H](Cc2ccccc2)C(=O)N2CCC[C@H]2C(N)=O)NC(=O)[C@H](Cc2ccc(O)cc2)NC(=O)[C@H](C(C)C)NC(=O)[C@H](CC(=O)O)NC(=O)[C@H](CC2CCOCC2)NC(=O)[C@H](CC2CCNCC2)NC(=O)CNC(=O)[C@H](C(C)(C)C)NC1=O [compound 284, DOTA-gE-hLeu-7AzaW-C-Tbg-G-PipAla-ThpA-D-V-Y-C-1Nal-F-Pro-CONH2] ({DOTA-γGlu}-[hLeu][Trp(7-aza)]C[Tle]G[Ala(piperidin-4-yl)][Ala(4-THP)]DVYC[1Nal]FP-NH2; disulfide 3-11)
100 to 300 nM | CCCC[C@@H]1NC(=O)[C@H](C(C)C)NC(=O)[C@H](CC(=O)O)NC(=O)[C@H](Cc2ccc(C(=O)O)cc2)NC(=O)[C@H](CCCCNC(=O)CN2CCN(CC(=O)O)CCN(CC(=O)O)CCN(CC(=O)O)CC2)NC(=O)CNC(=O)[C@H](C(C)C)NC(=O)[C@@H](NC(=O)[C@H](Cc2ccc(O)cc2)NC(=O)[C@H](CCC(C)C)NC(C)=O)CSSC[C@@H](C(=O)N[C@@H](Cc2c[nH]c3ccc(F)cc23)C(=O)N[C@@H](Cc2ccccc2)C(=O)N2CCC[C@H]2C(N)=O)NC1=O [compound 302, Ac-hLeu-Y-C-V-G-Lys(DOTA)-4COOHPhe-D-V-Nle-C-5FW-F-Pro-CONH2] (Ac-[hLeu]YCVGK(DOTA)[Phe(4-COOH)]DV[Nle]C[Trp(5-F)]FP-NH2; disulfide 3-11)
1 to 10 nM | CC(=O)N[C@@H](CCC(C)C)C(=O)N[C@@H](Cc1ccc(O)cc1)C(=O)N[C@H]1CSSC[C@@H](C(=O)N[C@@H](Cc2c[nH]c3ccc(F)cc23)C(=O)N[C@@H](Cc2ccccc2)C(=O)N[C@H](C(=O)N[C@H](CCCCNC(=O)CN2CCN(CC(=O)O)CCN(CC(=O)O)CCN(CC(=O)O)CC2)C(N)=O)[C@@H](C)O)NC(=O)[C@H](Cc2ccc(O)cc2)NC(=O)[C@H](C(C)C)NC(=O)[C@H](CC(=O)O)NC(=O)[C@H](CCc2ccc(O)cc2)NC(=O)[C@H](CCCCN)NC(=O)CNC(=O)[C@H](C(C)C)NC1=O [compound 167, Ac-hLeu-Y-C-V-G-K-hTyr-D-V-Y-C-5FW-F-Thr-dLys(DOTA)-CONH2] (Ac-[hLeu]YCVGK[hTyr]DVYC[Trp(5-F)]FT[dK](DOTA)-NH2; disulfide 3-11)
< 1 nM | CC(=O)N[C@@H](CCC(C)C)C(=O)N[C@@H](Cc1ccc(O)cc1)C(=O)N[C@H]1CSSC[C@@H](C(=O)N[C@@H](Cc2c[nH]c3ccc(F)cc23)C(=O)N[C@@H](Cc2ccccc2)C(=O)N[C@H](C(=O)N[C@H](CCCCNC(=O)CN2CCN(CC(=O)O)CCN(CC(=O)O)CCN(CC(=O)O)CC2)C(=O)O)[C@@H](C)O)NC(=O)[C@H](Cc2ccc(O)cc2)NC(=O)[C@H](C(C)C)NC(=O)[C@H](CC(=O)O)NC(=O)[C@H](CC2CCOCC2)NC(=O)[C@H](CCCCN)NC(=O)CN(C)C(=O)[C@H](C(C)C)NC1=O [compound 362, Ac-hLeu-Y-C-V-Sar-K-ThpA-D-V-Y-C-5FW-F-Thr-dLys(DOTA)-COOH] (Ac-[hLeu]YCV[Sar]K[Ala(4-THP)]DVYC[Trp(5-F)]FT[dK](DOTA)-OH; disulfide 3-11)
1 to 10 nM | CC(=O)N[C@@H](CCC(C)C)C(=O)N[C@@H](Cc1ccc(O)cc1)C(=O)N[C@H]1CSSC[C@@H](C(=O)N[C@@H](Cc2c[nH]c3ccccc23)C(=O)N[C@@H](Cc2ccccc2)C(=O)N[C@H](C(=O)N[C@H](CCCCNC(=O)CN2CCN(CC(=O)O)CCN(CC(=O)O)CCN(CC(=O)O)CC2)C(N)=O)[C@@H](C)O)NC(=O)[C@H](Cc2ccc(O)cc2)NC(=O)[C@H](C(C)C)NC(=O)[C@H](CC(=O)O)NC(=O)[C@H](CC2CCNCC2)NC(=O)[C@H](CCCCN)NC(=O)CNC(=O)[C@H](C(C)C)NC1=O [compound 135, Ac-hLeu-Y-C-V-G-K-PipAla-D-V-Y-C-W-F-Thr-dLys(DOTA)-CONH2] (Ac-[hLeu]YCVGK[Ala(piperidin-4-yl)]DVYCWFT[dK](DOTA)-NH2; disulfide 3-11)
1 to 10 nM | CC(C)CC[C@H](NC(=O)CCOCCOCCOCCOCCOCCOCCOCCOCCNC(=O)CN1CCN(CC(=O)O)CCN(CC(=O)O)CCN(CC(=O)O)CC1)C(=O)N[C@@H](Cc1ccc(O)cc1)C(=O)N[C@H]1CSSC[C@@H](C(=O)N[C@@H](Cc2c[nH]c3ccc(F)cc23)C(=O)N[C@@H](Cc2ccccc2)C(=O)N2CCC[C@H]2C(N)=O)NC(=O)[C@H](Cc2ccc(O)cc2)NC(=O)[C@H](C(C)C)NC(=O)[C@H](CC(=O)O)NC(=O)[C@H](Cc2ccc(C(=O)O)cc2)NC(=O)[C@H](CC2CCNCC2)NC(=O)CNC(=O)[C@H](C(C)C)NC1=O [compound 285, DOTA-PEG8-hLeu-Y-C-V-G-PipAla-4COOHPhe-D-V-Y-C-5FW-F-Pro-CONH2] ({DOTA-PEG8}-[hLeu]YCVG[Ala(piperidin-4-yl)][Phe(4-COOH)]DVYC[Trp(5-F)]FP-NH2; disulfide 3-11)
10 to 100 nM | CCCC[C@H](NC(C)=O)C(=O)N[C@@H](Cc1ccc(O)cc1)C(=O)N[C@H]1CSSC[C@@H](C(=O)N[C@@H](Cc2c[nH]c3ccccc23)C(=O)N[C@@H](Cc2ccccc2)C(=O)N[C@H](C(=O)N[C@H](CCCCNC(=O)CN2CCN(CC(=O)O)CCN(CC(=O)O)CCN(CC(=O)O)CC2)C(=O)O)[C@@H](C)O)NC(=O)[C@H](Cc2ccc(O)cc2)NC(=O)[C@H](C(C)C)NC(=O)[C@H](CC(=O)O)NC(=O)[C@H](CCCC(=O)O)NC(=O)[C@H](CCCCN)NC(=O)CNC(=O)[C@H](C(C)C)NC1=O [compound 116, Ac-Nle-Y-C-V-G-K-HomoGlu-D-V-Y-C-W-F-Thr-dLys(DOTA)-COOH] (Ac-[Nle]YCVGK[Aad]DVYCWFT[dK](DOTA)-OH; disulfide 3-11)

Same assay, conditions: SPR KD—37° C., 4Ig B7-H3; 37° C. flow cell temperature

Kd | Compound
< 1 nM | CC(C)CC[C@H](NC(=O)[C@@H]1CCC(=O)N1)C(=O)N[C@@H](Cc1ccc(O)cc1)C(=O)N[C@H]1CSSC[C@@H](C(=O)N[C@@H](Cc2c[nH]c3ccc(F)cc23)C(=O)N[C@H](C(=O)N[C@H](C(=O)N[C@H](CCCCNC(=O)CN2CCN(CC(=O)O)CCN(CC(=O)O)CCN(CC(=O)O)CC2)C(=O)O)C(C)(C)O)[C@@H](C)c2ccccc2)NC(=O)[C@H](Cc2ccc(O)cc2)NC(=O)[C@H](C(C)C)NC(=O)[C@H](CC(=O)O)NC(=O)[C@H](CC2CCOCC2)NC(=O)[C@H](CC2CCNCC2)NC(=O)CNC(=O)[C@H](C(C)(C)C)NC1=O [compound 507, Pyroglutamate-hLeu-Y-C-Tbg-G-PipAla-ThpA-D-V-Y-C-5FW-[(2S, 3S)beta-Me-Phe]-hydroxyVal-dLys(DOTA)-COOH] ([pGlu][hLeu]YC[Tle]G[Ala(piperidin-4-yl)][Ala(4-THP)]DVYC[Trp(5-F)][X1][Val(3-OH)][dK](DOTA)-OH; disulfide 4-12)
100 to 300 nM | CC(=O)N[C@@H](CCC(C)C)C(=O)N[C@@H](Cc1ccc(O)cc1)C(=O)N[C@H]1CSSC[C@@H](C(=O)N[C@@H](Cc2cn(CC(=O)O)c3ccccc23)C(=O)N[C@@H](Cc2ccccc2)C(=O)N[C@H](C(=O)N[C@H](CCCCNC(=O)CN2CCN(CC(=O)O)CCN(CC(=O)O)CCN(CC(=O)O)CC2)C(=O)O)C(C)(C)O)NC(=O)[C@H](Cc2ccc(O)cc2)NC(=O)[C@H](C(C)C)NC(=O)[C@H](CC(=O)O)NC(=O)[C@H](CC2CCOCC2)NC(=O)[C@H](CCCCN)NC(=O)CNC(=O)[C@H](C(C)(C)C)NC1=O [compound 396, Ac-hLeu-Y-C-Tbg-G-K-ThpA-D-V-Y-C-Trp(CH2COOH)-F-hydroxyVal-dLys(DOTA)-COOH] (Ac-[hLeu]YC[Tle]GK[Ala(4-THP)]DVYC[Trp(1-CH2COOH)]F[Val(3-OH)][dK](DOTA)-OH; disulfide 3-11)
